Non-standard residues stand in square brackets, D forms with d. Residues, ends and D or L forms follow the SMILES beside them.
Assays:
[1] = system: COX-2; test: COX-2 immunohistochemistry on articular cartilage of surgically induced OA; assay type: in vivo, rat; details: surgery-induced OA rats
Excerpt: FIGS. 11A-11D are photomicrographs depicting the effect of BQ-123+R-954 dual inhibition. […] Tissues were obtained from surgery induced OA in a rat model Top panel represent COX-2 immunodetection on tissues from non-treated lesioned animals (FIG. 11A); BQ-123 treatment (FIG. 11B); R-954 treatment (FIG. 11C); BQ-123+R-954 dual treatment (FIG. 11D). Specific immune staining for COX-2 protein is observed as a darker color. Surgery, pharmacological treatment, and tissue collection and processing were performed as described in Kaufman et al., Arthritis Research and Therapy, 2011, 13:R76. FIG. 11E is a bar graph depicting the percentage of COX-2-positive chondrocytes in each of the conditions (mean of 5 slides counted per condition).
Method: 5-micron sections were processed for immunohistochemical detection of cyclooxygenase COX-2 as described above.

[2] = system: articular cartilage of ACLT rat knee; test: Micro-magnetic resonance imaging of knee, cartilage mean T2; assay type: in vivo; details: ACLT rats, four weeks post-operatively; statistical significance between groups not achieved
Excerpt: (§1) At four or eight weeks post-surgery, animals were sacrificed by cardiac puncture under deep isoflurane anaesthesia. The right knee was dissected, and 40-mm-long samples were cut and stored in phosphate-buffered saline until scanned by digital micro-X-ray (DX) and/or micro-magnetic resonance (MR) imaging. Samples were dissected the same day as the radiological scans.
A subset of animals were sacrificed four weeks post-operatively and their right knees were imaged by micro-MR. Imaging was performed using a Bruker PharmaScan™ (Ettlingen, Germany) 7 Tesla MR scanner at the McGill University Small Animal Imaging Lab (Montreal, QC). Knee samples were placed in a custom-made support inside a 15-mL centrifuge tube, which was then filled with the MR-inert buffer FC-770™ (3M Fluorinert™ Electronic Liquid). Samples were introduced into a 1H mouse brain radio frequency (RF) coil (inner diameter 22 mm), and centred in the magnet. The RF coil was tuned and matched to the sample, and the magnet was then shimmed. The system was controlled via Bruker ParaVision™ software (version 5.0). […]
After acquisition, images were analyzed using OsiriX software (version 3.7.1). […] As well, images were analyzed for signs of cartilage decay, indicated by lower signal intensity of the articular surfaces. […]

[3] = system: rat anterior cruciate ligament transection (ACLT) model of osteoarthritis; test: Digital micro-X-ray (DX) OA radiological scoring of knee joints; assay type: in vivo; details: ACLT rats; for Mean radiological score: DX views, maximum possible score nine; for radiological indices of disease progression (DX) versus saline-treated controls: 0.0020≦P≦0.0214
Excerpt: as §1
All knee samples were X-rayed using a Faxitron MX-20™ specimen X-ray system (Faxitron X-Ray Corporation, Lincolnshire, Ill.). Anteroposterior and lateral views were acquired at 5× magnification (10×10 μm pixel size) using a dose of 26 kV for 6 seconds. Images were analyzed using OsiriX™ software (version 3.7.1) [Rosset et al. OsiriX: an open-source software for navigating in multidimensional DICOM images. Journal of digital imaging (2004) 17(3): 205-16]. Radiological evidence of joint degradation, such as joint space narrowing and osteophyte formation, was evaluated. Radiological evidence of joint degradation was scored by two blinded examiners using an OA radiological score modified from Clark et al. [Clark R L, Cuttino JT Jr, Anderle S K, Cromartie W J, Schwab J H: Radiologic analysis of arthritis in rats after systemic injection of streptococcal cell walls. Arthritis Rheum 1979, 22:25-35.] and Esser et al. [Esser R E, Hildebrand A R, Angelo R A, Watts L M, Murphey M D, Baugh L E: Measurement of radiographic changes in adjuvant-induced arthritis in rats by quantitative image analysis. Arthritis Rheum 1995, 38:129-38.]. Bone demineralization, subchondral bone erosion, and heterotopic ossification were all scored on a scale from zero (normal) to three (marked degenerative changes). Total scores were calculated by summing the individual scores for each index, with a maximum possible score of nine.
OA radiological scores were statistically analyzed by one-way ANOVA, with total scores taken as the dependent variable and treatment group as the independent variable. Pairwise post-hoc testing with Holm correction was used to establish significance in between treatment groups. P-values less than 0.05 were considered statistically significant. Analyses were conducted using R (version 2.11.0) [R Development Core Team: R: A Language and Environment for Statistical Computing. Vienna, Austria: R Foundation for Statistical Computing 2010.].

[4] = system: rat anterior cruciate ligament transection (ACLT) model of osteoarthritis; test: Cartilage and bone histomorphology (Safranin O/Fast Green) with OARSI histopathology scoring; assay type: in vivo; details: ACLT rats, eight weeks post-operatively, maximum value 24
Method: After radiological examination, knee samples were fixed in 10% neutral buffered formalin for two weeks, decalcified with RDO Rapid Decalcifier™ (Apex Engineering Products, Aurora, Ill.) for three days, circulated, and embedded in paraffin. Five-micron sagittal sections were acquired from the middle of the knee joint. Histomorphological staining was performed as previously described [Rosenberg L: Chemical basis for the histological use of safranin O in the study of articular cartilage. J Bone Joint Surg Am 1971, 53:69-82]: slides were deparrafinized, rehydrated, stained with Safranin O (which colours proteoglycans red) and Fast Green FCF (which colours collagens green), counterstained with hematoxylin, dehydrated, cleared, and mounted in Permount™. […]
Four slides from each condition were scored by two blinded examiners using the Osteoarthritis Research Society International (OARSI) histopathology assessment system [Pritzker K P H, Gay S, Jimenez S A, Ostergaard K, Pelletier J P, Revell P A, Salter D, van den Berg W B: Osteoarthritis cartilage histopathology: grading and staging. […]
OARSI scores were statistically analyzed by one-way ANOVA, with total scores taken as the dependent variable and treatment group as the independent variable. […]

[5] = target: bradykinin receptor B2 (Homo sapiens, UniProt P30411); details: patients with painful knee osteoarthritis, intra-articular; cited from earlier work
Sequence of bradykinin receptor B2 (P30411 whole entry): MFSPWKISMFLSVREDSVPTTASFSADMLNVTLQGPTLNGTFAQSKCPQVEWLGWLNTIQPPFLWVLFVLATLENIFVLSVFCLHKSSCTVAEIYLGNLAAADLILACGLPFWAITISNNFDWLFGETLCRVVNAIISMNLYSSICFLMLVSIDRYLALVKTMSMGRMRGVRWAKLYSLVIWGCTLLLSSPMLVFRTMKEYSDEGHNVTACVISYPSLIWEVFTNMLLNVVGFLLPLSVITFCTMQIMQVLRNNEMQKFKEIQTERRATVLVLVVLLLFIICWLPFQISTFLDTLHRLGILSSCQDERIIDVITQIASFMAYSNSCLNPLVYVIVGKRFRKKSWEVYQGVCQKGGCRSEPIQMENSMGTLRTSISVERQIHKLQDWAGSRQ

Row | SMILES | COX-2 staining on articular cartilage [1] | Mean T2 value [2] | Mean radiological score [3] | radiological indices of disease progression (DX) versus saline-treated controls [3] | Mean OARSI score [4] | analgesia in knee OA [5] | anti-inflammatory effect in knee OA [5]
1 | CC(C)C[C@@H]1NC(=O)[C@@H](C(C)C)NC(=O)[C@@H]2CCCN2C(=O)[C@@H](CC(=O)O)NC(=O)[C@@H](Cc2c[nH]c3ccccc23)NC1=O [BQ-123] (cyclo(L[dW][dD]P[dV])) | diminished | 61.13 ms | 2.83 | significantly ameliorated radiological indices of disease progression | 10.25 | – | –
2 | NC(N)=NCCC[C@@H](N)C(=O)N[C@@H](CCCN=C(N)N)C(=O)N1CCC[C@H]1C(=O)N1C[C@H](O)C[C@H]1C(=O)NCC(=O)N[C@@H](Cc1cccs1)C(=O)N[C@@H](CO)C(=O)N1Cc2ccccc2C[C@@H]1C(=O)N1[C@H](C(=O)N[C@@H](CCCN=C(N)N)C(=O)O)C[C@@H]2CCCC[C@@H]21 [Icatibant] | – | – | – | – | – | provided local analgesia | no anti-inflammatory effect could be detected
3 | C=C(N)NCC[C@@H](CC(=O)[C@@H](CCCC)CC(C)=O)C(=O)N1[C@H]2CCCC[C@@]2(C)C[C@H]1C(=O)N1CCC[C@@H]1C(=O)CCC(=O)NC(C)(Cc1ccccc1)C(=O)NC(CO)C(=O)C[C@H](Cc1cccc2ccccc12)C(=C)CC(C(=O)O)[C@H](C)CC (some centres unmarked) [R-954] | – | 64.38 ms | 2.50 | significantly ameliorated radiological indices of disease progression | 4.25 | – | –

Reference: patent publication US20120202744A1, “DUAL ANTAGONISM OF ENDOTHELIN TYPE A AND BRADYKININ B1 RECEPTORS FOR TREATING PAIN AND PREVENTING CARTILAGE DEGRADATION” (priority 2011, published 2012)
